Measurements from article PMC3034727 (PLoS ONE, 2011).
Values joined by “and” are separate entries in the source; they are usually repeats but may differ in a detail not shown here. Equal entries are not always repeated.

How the values were obtained:
[1] = target: Construct 2 (recombinant Hokkaido N1 NA, GCN4-pLI stalk) (Influenza A virus, UniProt Q7TER1); format: biochemical, Influenza virus strain A/Hokkaido/15/02 H1N1
[2] = target: Construct 4 (recombinant Hokkaido N1 NA, Tetrabrachion stalk) (Influenza A virus, UniProt Q7TER1); format: biochemical, Influenza virus strain A/Hokkaido/15/02 H1N1
Chain of Construct 4 (recombinant Hokkaido N1 NA, Tetrabrachion stalk) (Q7TER1 70-470): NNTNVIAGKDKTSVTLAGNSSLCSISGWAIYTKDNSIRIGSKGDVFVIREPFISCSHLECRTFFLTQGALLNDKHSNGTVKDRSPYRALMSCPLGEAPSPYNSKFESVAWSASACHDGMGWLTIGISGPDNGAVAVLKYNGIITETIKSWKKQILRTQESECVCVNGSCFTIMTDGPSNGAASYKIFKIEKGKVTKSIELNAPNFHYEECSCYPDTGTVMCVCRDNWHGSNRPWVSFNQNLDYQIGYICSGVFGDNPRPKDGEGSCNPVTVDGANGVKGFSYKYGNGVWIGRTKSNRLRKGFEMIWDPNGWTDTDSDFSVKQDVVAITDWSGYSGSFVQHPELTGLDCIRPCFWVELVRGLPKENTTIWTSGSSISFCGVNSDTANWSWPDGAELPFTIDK

Hokkaido virus NA = Hokkaido virus NA (Influenza A virus, UniProt Q7TER1); format: biochemical, Influenza virus strain A/Hokkaido/15/02 H1N1
Chain of Hokkaido virus NA (Q7TER1 entry or part of it, added parts left off): as the sequence (Q7TER1 70-470) above

[3] = target: Construct 4: FLAG-tagged recombinant Hokkaido N1 neuraminidase with an artificial Tetrabrachion stalk (Staphylothermus marinus | influenza A virus A/Hokkaido/15/02 (H1N1)); experiment: SEC

Chain of Construct 2 (recombinant Hokkaido N1 NA, GCN4-pLI stalk) (Q7TER1 70-470): as above

Molecule | K m value for MUNANA [1] | K m value for MUNANA [2] | K m value for MUNANA (Hokkaido virus NA) | stoichiometry N [3]
CC(=O)N[C@H]1[C@H]([C@H](O)[C@H](O)CO)OC(Oc2ccc3c(C)cc(=O)oc3c2)(C(=O)O)C[C@@H]1O (stereo partly drawn) [MUNANA, 4-Methylumbelliferyl N-acetyl-a-D-Neuraminic acid] | 54.4 µM and 54.1 µM and 54.1 ± 4.4 µM | 34.7 µM and 34.7 ± 1.9 µM | 24.1 µM and 24.1 ± 1.1 µM | 
Construct 4: FLAG-tagged recombinant Hokkaido N1 neuraminidase with an artificial Tetrabrachion stalk (enzyme) |  |  |  | 4
